We go through 103 compounds from PubChem BioAssay AID1996.

Converted amounts (≈) assume the structure as drawn.

The term solubility (kinetic) denotes solubility judged after dilution from a stock solution rather than from solid.

For the data set the following is noted: buffer; pH 7.4; 200.0 µM.
The compound `Nc1ccc2nc(-c3ccccc3)c(-c3ccccc3)nc2c1` came in with a solubility (kinetic) of 0.0257 mg/mL (≈ 86.4 µM). As for `O=C(NCc1ccncc1)NC12CC3CC(CC(C3)C1)C2`, the figure is 0.0413 mg/mL (≈ 145 µM); as for `CC1CC(=O)Nc2ccccc2N1S(=O)(=O)c1ccc(F)cc1F` (stereo not drawn), 0.0156 mg/mL (≈ 44.3 µM); as for `Cc1ccc(CNC(=O)C2CCCC2)cc1`, 0.0275 mg/mL (≈ 127 µM). The compound `Cc1ccc(S(=O)(=O)NCCSc2ncccn2)cc1` came in with a solubility (kinetic) above 0.0464 mg/mL. As for `COc1cccc(NC(=O)Cc2ccc3ccccc3c2)c1`, the figure is 0.0022 mg/mL (≈ 7.55 µM); as for `Cc1c(C(=O)NC2CCC(C)CC2)oc2ccccc12` (stereo not drawn), 0.0007 mg/mL (≈ 2.58 µM). As for `O=C1NC(=O)/C(=C/c2ccccc2Cl)N1`, the figure is 0.0178 mg/mL (≈ 80 µM); as for `CCCC(C)NC(=O)CSc1nnc2ccccn12` (stereo not drawn), above 0.0418 mg/mL. As for `Cc1cc(NC(=O)CSc2cc(C)c3ccccc3n2)no1`, the figure is 0.0022 mg/mL (≈ 7.02 µM); as for `COc1ccc(NC(=O)N2CCCc3ccccc32)c(OC)c1`, 0.0453 mg/mL (≈ 145 µM); as for `O=C(COC(=O)/C=C/c1ccc(F)cc1)Nc1ccc(S(=O)(=O)N2CCOCC2)cc1`, 0.0061 mg/mL (≈ 13.6 µM). Turning to `N#Cc1ccc(CSc2nnc3ccccn23)cc1`, the solubility (kinetic) was above 0.0399 mg/mL.

For `Cc1ccc(NCCC(=O)c2cccc([N+](=O)[O-])c2)c(C)c1`, the solubility (kinetic) is 0.0017 mg/mL (≈ 5.7 µM). `CC(C)N1C(=O)CCC1C(=O)NCc1ccc(F)cc1Cl` (stereo not drawn) came in with a solubility (kinetic) above 0.0469 mg/mL. Regarding `COc1ccc2nc(C(F)(F)Cl)c(C#N)c(N)c2c1`, the kinetic solubility is 0.0038 mg/mL (≈ 13.4 µM). As for `CC(=O)c1sc(=S)n(-c2ccccc2)c1C`, the solubility (kinetic) amounted to 0.0094 mg/mL (≈ 37.7 µM). As for `CCOC(=O)C1CCN(C(=O)COc2ccc3c(c2)OCO3)CC1`, the figure is above 0.0503 mg/mL. The same measure for `Cc1ccc(C(=O)N2c3ccccc3CC2C)o1` (stereo not drawn): 0.0316 mg/mL (≈ 131 µM). The compound `O=c1c2ccccc2nc(/C=C/c2ccccc2O)n1-c1ccccc1O` displayed a kinetic solubility of 0.0308 mg/mL (≈ 86.4 µM). `OC1CCN(Cc2ccc(OCc3ccccc3)cc2)CC1` had a kinetic solubility above 0.0446 mg/mL.

For `CN1CCN(C(=O)CSc2nc3c(c(=O)n(C)c(=O)n3C)n2C)CC1`, the solubility (kinetic) is 0.0481 mg/mL (≈ 131 µM). For `CC(C)c1ccc(CSc2ccc(S(=O)(=O)N3CCOCC3)cn2)cc1`, the kinetic solubility was determined as 0.0019 mg/mL (≈ 4.84 µM).

For `C=CCN(CC(=O)NC1CC1)S(=O)(=O)c1cccc(C(F)(F)F)c1`, the kinetic solubility is above 0.0544 mg/mL. As for `CCOC(=O)N1CCN(C(=O)c2cc3ccc(OC)cc3[nH]2)CC1`, the figure is 0.0195 mg/mL (≈ 58.8 µM); as for `COc1cccc(Nc2nc3cc(OC)ccc3cc2C#N)c1`, 0.0002 mg/mL (≈ 0.655 µM). The same measure for `O=C(c1cccc(F)c1F)N1CCCc2ccccc21`: 0.0311 mg/mL (≈ 114 µM); for `COc1ccc(C/C(N)=N/OC(=O)CCc2ccccc2)cc1`: 0.0077 mg/mL (≈ 24.7 µM). As to `O=S(=O)(NC1Cc2ccccc2C1)c1ccccc1`, the solubility (kinetic) was above 0.041 mg/mL. The same measure for `CCOC(=O)COc1c(Cl)cc(/C=C2\N=C(C)OC2=O)cc1OC`: 0.0465 mg/mL (≈ 131 µM); for `CCOC(=O)c1cc(C)nc(SC)c1C#N`: 0.0169 mg/mL (≈ 71.5 µM).

Regarding `CC(=O)Nc1ccc(S(=O)(=O)N[C@@H](C)C(=O)OCC(=O)c2ccc[nH]2)cc1`, the solubility (kinetic) amounted to 0.0422 mg/mL (≈ 107 µM). In turn, `O=C(COC(=O)/C=C/c1ccc(Cl)cc1)Nc1cccc(S(=O)(=O)NC2=NCCCCC2)c1` registered a kinetic solubility of 0.0087 mg/mL (≈ 17.8 µM). For `Cn1c(-c2ccccc2[N+](=O)[O-])[n+](C)c2ccccc21.[Cl-]`, the solubility (kinetic) came out at 0.0429 mg/mL. This solubility kinetic lies about 4.9-fold higher than the previous one. The same measure for `CCCCc1nc2cc(C(=O)N3CCCC3)ccc2o1`: above 0.0409 mg/mL; for `COc1cc2cc(-c3ccc(OC)c(OC)c3C)nc(N)c2cc1OC`: 0.0468 mg/mL (≈ 132 µM). The same measure for `O=C(O)c1cccc(S(=O)(=O)N2CCc3ccccc3C2)c1`: 0.0262 mg/mL (≈ 82.6 µM). The same measure for `C=C[C@]1(C)C[C@@H](OC(=O)CSCCN(CC)CC)[C@]2(C)C(C)CC[C@]3(CCC(=O)[C@H]32)[C@@H](C)[C@@H]1O` (stereo partly drawn): 0.0649 mg/mL (≈ 131 µM). `O=[N+]([O-])c1cc(CSC2=NCCN2)ccc1O`: the kinetic solubility is 0.0371 mg/mL (≈ 146 µM).

On to `CN(C)CCOC(=O)c1ccc2[nH]c3c(c2c1)CSCC3.Cl`, for which the kinetic solubility came to 0.0492 mg/mL. Turning to `Cc1nc2ccccc2nc1Nc1cccc(Cl)c1`, the kinetic solubility came out at 0.0202 mg/mL (≈ 74.9 µM). The same measure for `Cc1ccc(-n2ccnc2SCC(=O)O)cc1C`: above 0.0393 mg/mL; for `Cc1nc2nc(-c3cccs3)[nH]c2cc1Br`: 0.0038 mg/mL (≈ 12.9 µM); for `CCOC(=O)CN/C=C(\C#N)c1ccc(F)cc1`: 0.0364 mg/mL (≈ 147 µM). As for `CCCC(=O)NC(c1ccc(C)cc1)c1ccc2cccnc2c1O` (stereo not drawn), the figure is 0.0012 mg/mL (≈ 3.59 µM); as for `O=C(Nc1ncc(Cc2cccc(Cl)c2Cl)s1)C1CCCO1` (stereo not drawn), 0.0019 mg/mL (≈ 5.32 µM). The same measure for `COCCCN=CC1=C(O)CC(c2ccccc2)CC1=O` (stereo not drawn): above 0.0431 mg/mL; for `C=CCN1C(=O)C(CC(=O)NCC)SC1=Nc1ccccc1CC` (stereo not drawn): 0.0443 mg/mL (≈ 128 µM).

In the case of `Cc1cc(C)c(C)c(S(=O)(=O)NC2CCCCC2)c1C`, the kinetic solubility was below 0.0006 mg/mL. Compound `COC(=O)CCN(C(=O)c1cccc([N+](=O)[O-])c1)c1ccccn1` had a solubility (kinetic) above 0.0494 mg/mL. Turning to `CC(=O)Nc1cccc(C(=O)/C=C/c2ccc[nH]2)c1`, the solubility (kinetic) was above 0.0381 mg/mL. As for `N#Cc1ccccc1COC(=O)c1ccc2c(c1)OCO2`, the figure is 0.0052 mg/mL (≈ 18.5 µM).

For `Cc1ccc(NC(=O)CN2c3cccc4cccc(c34)S2(=O)=O)cc1`, the kinetic solubility is 0.0038 mg/mL (≈ 10.8 µM). This solubility kinetic and that of the compound before are within 1.5-fold of each other. As for `Cc1nc2c(C#N)c[nH]n2c(=O)c1CCO`, the figure is above 0.0327 mg/mL.

`CS(=O)(=O)N1CCN(Cc2cc(=O)n3ccsc3n2)CC1`: the solubility (kinetic) was above 0.0493 mg/mL. The same measure for `Cc1noc(C)c1C(=O)Nc1nc(-c2ccc(F)cc2)cs1`: 0.0103 mg/mL (≈ 32.5 µM); for `C=C(C)Cn1cnc2cc(C)c(C)cc21`: above 0.03 mg/mL.

`CCOC(=O)c1ccc(NC(=O)c2nc(SC)ncc2Cl)cc1` yielded a solubility (kinetic) of 0.001 mg/mL (≈ 2.84 µM). The same measure for `O=C(N/C(=C\c1ccco1)C(=O)N1CCC(O)CC1)c1ccccc1`: 0.0411 mg/mL (≈ 121 µM); for `CCc1cccc2c(C(=O)CN3C(=O)NC4(CCCCC4)C3=O)c[nH]c12`: 0.007 mg/mL (≈ 19.8 µM); for `CCc1ccc(NC(=O)c2cnccn2)cc1`: 0.0214 mg/mL (≈ 94.2 µM). On to `N#CC(C(=O)c1ccccc1)=C1SCCS1`, for which the solubility (kinetic) was determined as 0.0018 mg/mL (≈ 7.28 µM). In turn, `O=c1[nH]c(=S)n(C2CC2)c(O)c1C=NCc1ccc(F)cc1` registered a solubility (kinetic) of 0.0009 mg/mL (≈ 2.82 µM). As for `CN(C)CC/C=C1/c2ccccc2CS(=O)(=O)c2ccccc21`, the figure is 0.0476 mg/mL (≈ 145 µM); as for `C[C@H](NC(=O)c1ccco1)C(=O)Nc1ccc(C#N)cc1`, above 0.0425 mg/mL. As for `CCCN1C(=O)C2(SC(NC(C)=O)=NN2C(C)=O)c2cc(C)cc(C)c21` (stereo not drawn), the figure is above 0.0562 mg/mL; as for `CCN1C(=O)CC(C(=O)OC)=C1C`, 0.0246 mg/mL (≈ 134 µM). The same measure for `Cc1cc(C)cc(C(=O)OCC(=O)NC(=O)NC2CCCC2)c1`: 0.0041 mg/mL (≈ 12.9 µM). `O=C(NCc1ccc(Cl)cc1)C1CCC(=O)N(C2CC2)C1` (stereo not drawn) showed a kinetic solubility above 0.046 mg/mL. `CS(=O)(=O)c1ccc(Cl)c(NC(=O)COC(=O)c2ccc(S(=O)(=O)N3CCCC3)cc2)c1` yielded a kinetic solubility of 0.0105 mg/mL (≈ 21 µM).

`O=C(CS(=O)(=O)c1ccccc1)NCc1ccccc1`: the kinetic solubility was above 0.0434 mg/mL.

`Cc1csc2c(N3CCCCC3)ncnc12` showed a kinetic solubility above 0.035 mg/mL. For `O=C(NC1CCCCC1)NC1C2CC3CC(C2)CC1C3` (stereo not drawn), the kinetic solubility was 0.0023 mg/mL (≈ 8.32 µM).

As for `CC(C)(C)c1ccc(C(=O)N2CCN(Cc3ccccc3)CC2)cc1`, the kinetic solubility is 0.0285 mg/mL (≈ 84.7 µM). The compound `O=C(O)CSCC(=O)Nc1ccccn1` showed a solubility (kinetic) above 0.0339 mg/mL. Take `CCOC(=O)C(=O)Nc1ncc(Cl)s1`: the kinetic solubility came out at 0.0342 mg/mL (≈ 146 µM). The same measure for `Nc1cc(Cl)ccc1N1CCCCC1`: 0.0006 mg/mL (≈ 2.85 µM); for `COc1cccc(NC2=NCCCS2)c1`: above 0.0333 mg/mL. The same measure for `O=S(=O)(c1ccc(-c2ccon2)s1)N1CCN(c2ccccn2)CC1`: 0.0011 mg/mL (≈ 2.92 µM); for `O=[N+]([O-])c1ccc(Oc2cccc3cccnc23)c(Cl)c1`: 0.0141 mg/mL (≈ 46.9 µM); for `COc1ccccc1Nc1ccc2nonc2c1[N+](=O)[O-]`: 0.002 mg/mL (≈ 6.99 µM). As for `Nc1c(N(Cc2ccccc2)C(=O)COc2ccc(F)cc2Cl)c(=O)[nH]c(=O)n1Cc1ccccc1`, the figure is 0.0094 mg/mL (≈ 18.5 µM); as for `Cc1ccc(N2CCN(c3ncccc3[N+](=O)[O-])CC2)c(C)c1`, 0.0014 mg/mL (≈ 4.48 µM). Turning to `O=C(COc1ccc(Cl)cc1[N+](=O)[O-])N1CCCCCC1`, the kinetic solubility is above 0.0469 mg/mL. As for `Cc1cc(S(=O)(=O)N2CCCCC2)c(C)s1`, the figure is above 0.0389 mg/mL; as for `Oc1ccc(-c2nccc(-c3ccc(Br)cc3)n2)cc1`, 0.0004 mg/mL (≈ 1.22 µM); as for `Cc1nnc(SCC(=O)O)s1`, above 0.0285 mg/mL. The same measure for `Cc1ccccc1C1NC(c2ccccc2C)C(C)C(=O)C1C` (stereo not drawn): 0.0077 mg/mL (≈ 25 µM). As for `CCSC1=NCCN1C(=O)C(C)(C)Oc1ccc(Cl)cc1`, the figure is 0.0098 mg/mL (≈ 30 µM); as for `Cc1c(C(=O)OCC(=O)N2CCN(c3ccccc3)CC2)oc2ccccc12`, 0.0045 mg/mL (≈ 11.9 µM); as for `O=C(Nc1nc2ccc([N+](=O)[O-])cc2s1)c1ccncc1`, 0.0019 mg/mL (≈ 6.33 µM). `CC(C)Nc1nc(-c2ccncc2)nc(-c2ccccc2)c1C#N` displayed a kinetic solubility below 0.0001 mg/mL.

With `Cc1ccc(Nc2nc(N)c(C#N)c(CC#N)c2C#N)cc1`, the kinetic solubility stood at 0.0016 mg/mL (≈ 5.55 µM). On to `Cc1ccccc1C(=O)NCC(=O)OC1CCCCC1=O` (stereo not drawn), for which the solubility (kinetic) is above 0.0434 mg/mL. For `Cc1ccc(NC(=O)Cc2ccc(-c3ccccc3)cc2)nc1`, the kinetic solubility came out at 0.0057 mg/mL (≈ 18.9 µM). For `O=C(CSc1nc2sc3c(c2c(=O)[nH]1)CCC3)NCCO`, the kinetic solubility was above 0.0488 mg/mL. `CC(=O)NC1CCN(CC(=O)Nc2nccs2)CC1`: the solubility (kinetic) stood at 0.0405 mg/mL (≈ 143 µM). The same measure for `COc1ccc(-c2noc(CCC(=O)NCCc3ccccc3)n2)cc1`: 0.0054 mg/mL (≈ 15.4 µM). As for `COc1cc(C#N)c(N=C(SCC#N)N2CCOCC2)cc1OC`, the figure is above 0.052 mg/mL; as for `Cc1cc(Cl)ccc1NC(=O)CN1C(=O)NC2(CCCC2)C1=O`, above 0.0504 mg/mL. Compound `CNC(=O)c1cc(S(=O)(=O)Nc2ccc3c(c2)OCCO3)ccc1C` gave a solubility (kinetic) above 0.0544 mg/mL. `CC1CC(C)CN(S(=O)(=O)c2ccc(Cl)cc2)C1` (stereo not drawn) registered a kinetic solubility of 0.0093 mg/mL (≈ 32.3 µM). As for `COc1ccccc1CN1C(=O)CNC1=S`, the figure is above 0.0354 mg/mL.
